This passage reports Binding % results from patent US11021470B2, “2-substituted quinazoline compounds comprising a substituted heterocyclic group and methods of use thereof” (Araxes Pharma LLC, priority 2015, dated 2021).

The assay has as its target T1, KRAS G12C 1-169, his-tagged protein, GDP-loaded (Homo sapiens, UniProt P01116, G12C).
T1 construct: KRAS G12C 1-169, his-tagged protein, GDP-loaded
Description: KRAS G12C covalent binding (% modification) by mass spectrometry, ten or three minute incubation. The following applies: covalent binding to KRAS G12C, % modification after a three minute incubation period. Put shortly: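 GDP-loaded protein in 20 mM Hepes, 150 mM NaCl, 1 mM MgCl2 was incubated with compound (final 100, 30 or 10 μM; 2% DMSO) at room temperature, then quenched with formic acid. Intact-protein LC-MS with charge-envelope deconvolution gave masses and intensities of modified and unmodified species.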
For the molecule `C=CC(=O)N1C[C@H](C)N(c2nc(N3CC(N(C)C)C3)nc3c(F)c(-c4c(O)cccc4F)c(Cl)cc23)C[C@@H]1C` [Compound 94, 1-((2S,5S)-4-(6-chloro-2-(3-(dimethylamino)azetidin-1-yl)-8-fluoro-7-(2-fluoro-6-hydroxyphenyl)quinazolin-4-yl)-2,5-dimethylpiperazin-1-yl)prop-2-en-1-one], the Binding % result is “+ (+ indicates binding activity greater than 0% and up to 50%)”.
Consider `C=CC(=O)N1C[C@H](C)N(c2nc(N3CC(N(C)C)C3)nc3c(F)c(-c4cc(O)cc5ccccc45)c(C(F)(F)F)cc23)C[C@H]1C` [Compound 178, 1-((2R,5S)-4-(2-(3-(dimethylamino)azetidin-1-yl)-8-fluoro-7-(3-hydroxynaphthalen-1-yl)-6-(trifluoromethyl)quinazolin-4-yl)-2,5-dimethylpiperazin-1-yl)prop-2-en-1-one], for which the Binding % result was “+++ (+++ indicates binding activity greater than 90%)”.
Then `C=CC(=O)N1C[C@H](C)N(c2nc(N3CC(N(C)C)C3)nc3c(F)c(-c4c(C)ccc5cn[nH]c45)c(Cl)cc23)C[C@H]1C` [Compound 187, 1-((2R,5S)-4-(6-chloro-2-(3-(dimethylamino)azetidin-1-yl)-8-fluoro-7-(6-methyl-1H-indazol-7-yl)quinazolin-4-yl)-2,5-dimethylpiperazin-1-yl)prop-2-en-1-one], with “+++ (+++ indicates binding activity greater than 90%)”; and `[2H]C([2H])([2H])N(C1CN(c2nc(N3C[C@@H](C)N(C(=O)C=C)C[C@@H]3C)c3cc(Cl)c(-c4c(O)cccc4F)c(F)c3n2)C1)C([2H])([2H])[2H]` [Compound 196, 1-((2R,5S)-4-(2-(3-(bis(trideuteromethyl)amino)azetidin-1-yl)-6-chloro-8-fluoro-7-(2-fluoro-6-hydroxyphenyl)quinazolin-4-yl)-2,5-dimethylpiperazin-1-yl)prop-2-en-1-one], with “+++ (+++ indicates binding activity greater than 90%)”; and `C=CC(=O)N1C[C@H](C)N(c2nc(N3CC(N(C)C)C3)nc3c(F)c(-c4c(O)cccc4F)c(C(F)(F)F)cc23)C[C@H]1C` [Compound 206, 1-((2R,5S)-4-(2-(3-(dimethylamino)azetidin-1-yl)-8-fluoro-7-(2-fluoro-6-hydroxyphenyl)-6-(trifluoromethyl)quinazolin-4-yl)-2,5-dimethylpiperazin-1-yl)prop-2-en-1-one], with “+++ (+++ indicates binding activity greater than 90%)”.
The result for `C=CC(=O)N1C[C@H](C)N(c2nc(OC3CCN(C)CC3)nc3c(F)c(-c4cc(O)cc5ccccc45)c(Cl)cc23)C[C@H]1C` [Compound 245, 1-((2R,5S)-4-(6-chloro-8-fluoro-7-(3-hvdroxynaphthalen-1-yl)-2-((1-methylpiperidin-4-yl)oxy)quinazolin-4-yl)-2,5-dimethylpiperazin-1-yl)prop-2-en-1-one] reads “+++ (+++ indicates binding activity greater than 90%)”; that for `C=CC(=O)N1C[C@H](C)N(c2nc(N3CC(N(C)C)C3)nc3c(F)c(-c4c(C)ccc5c(C)n[nH]c45)c(Cl)cc23)C[C@H]1C` [Compound 246, 1-((2R,5S)-4-(6-chloro-7-(3,6-dimethyl-1H-indazol-7-yl)-2-(3-(dimethylamino)azetidin-1-yl)-8-fluoroquinazolin-4-yl)-2,5-dimethylpiperazin-1-yl)prop-2-en-1-one], “+ (+ indicates binding activity greater than 0% and up to 50%)”.
As for `C=CC(=O)N1C[C@H](C)N(c2nc(OCCCN3CC(F)(F)C3)nc3c(F)c(-c4cc(O)cc5ccccc45)c(Cl)cc23)C[C@H]1C` [Compound 247, 1-((2R,5S)-4-(6-chloro-2-(3-(3,3-difluoroazetidin-1-yl)propoxy)-8-fluoro-7-(3-hydroxynaphthalen-1-yl)quinazolin-4-yl)-2,5-dimethylpiperazin-1-yl)prop-2-en-1-one], the Binding % result was “+ (+ indicates binding activity greater than 0% and up to 50%)”.
The result for `C=CC(=O)N1C[C@H](C)N(c2nc(OCCCN3CC(F)(F)C3)nc3c(F)c(-c4c(C)ccc5[nH]ncc45)c(Cl)cc23)C[C@H]1C` [Compound 248, 1-((2R,5S)-4-(6-chloro-2-(3-(3,3-difluoroazetidin-1-yl)propoxy)-8-fluoro-7-(5-methyl-1H-indazol-4-yl)quinazolin-4-yl)-2,5-dimethylpiperazin-1-yl)prop-2-en-1-one] reads “++ (++ indicates binding activity from 50 to 90%)”.
For the molecule `C=CC(=O)N1C[C@H](C)N(c2nc(OCCCN3CC(F)(F)C3)nc3c(F)c(-c4c(O)cccc4F)c(Cl)cc23)C[C@H]1C` [Compound 250, 1-((2R,5S)-4-(6-chloro-2-(3-(3,3-difluoroazetidin-1-yl)propoxy)-8-fluoro-7-(2-fluoro-6-hydroxyphenyl)quinazolin-4-yl)-2,5-dimethylpiperazin-1-yl)prop-2-en-1-one], the Binding % result was “+++ (+++ indicates binding activity greater than 90%)”.
With `C=CC(=O)N1C[C@H](C)N(c2nc(N3CC(N(C)C)C3)nc3c(Cl)c(-c4c(O)cccc4F)c(Cl)cc23)C[C@H]1C` [Compound 251, 1-((2R,5S)-4-(6,8-dichloro-2-(3-(dimethylamino)azetidin-1-yl)-7-(2-fluoro-6-hydroxyphenyl)quinazolin-4-yl)-2,5-dimethylpiperazin-1-yl)prop-2-en-1-one], the Binding % entry is reported as “++ (++ indicates binding activity from 50 to 90%)”.
Regarding `C=CC(=O)N1C[C@H](C)N(c2nc(N3CC(N(C)C)C3)nc3c(F)c(-c4c(C)ccc5[nH]nc(C)c45)c(Cl)cc23)C[C@H]1C` [Compound 252, 1-((2R,5S)-4-(6-chloro-7-(3,5-dimethyl-1H-indazol-4-yl)-2-(3-(dimethylamino)azetidin-1-yl)-8-fluoroquinazolin-4-yl)-2,5-dimethylpiperazin-1-yl)prop-2-en-1-one], the Binding % entry is reported as “+++ (+++ indicates binding activity greater than 90%)”.
In the case of `C=CC(=O)N1C[C@H](C)N(c2nc(OCCO)nc3c(F)c(-c4c(O)cccc4F)c(Cl)cc23)C[C@H]1C` [Compound 253, 1-((2R,5S)-4-(6-chloro-8-fluoro-7-(2-fluoro-6-hydroxyphenyl)-2-(2-hydroxyethoxy)quinazolin-4-yl)-2,5-dimethylpiperazin-1-yl)prop-2-en-1-one], the Binding % result is reported as “++ (++ indicates binding activity from 50 to 90%)”.
For the molecule `C=CC(=O)N1C[C@H](C)N(c2nc(OCCn3cnc4ccccc43)nc3c(F)c(-c4c(O)cccc4F)c(Cl)cc23)C[C@H]1C` [Compound 254, 1-((2R,5S)-4-(2-(2-(1H-benzo[d]imidazol-1-yl)ethoxy)-6-chloro-8-fluoro-7-(2-fluoro-6-hydroxyphenyl)quinazolin-4-yl)-2,5-dimethylpiperazin-1-yl)prop-2-en-1-one], the Binding % entry was “+ (+ indicates binding activity greater than 0% and up to 50%)”.
The result for `C=CC(=O)N1C[C@H](C)N(c2nc(N3CC(N(C)C)C3)nc3c(F)c(-c4c(F)ccc(Cl)c4O)c(Cl)cc23)C[C@H]1C` [Compound 260, 1-((2R,5S)-4-(6-chloro-7-(3-chloro-6-fluoro-2-hydroxyphenyl)-2-(3-(dimethylamino)azetidin-1-yl)-8-fluoroquinazolin-4-yl)-2,5-dimethylpiperazin-1-yl)prop-2-en-1-one] reads “++ (++ indicates binding activity from 50 to 90%)”; that for `C=CC(=O)N1C[C@H](C)N(c2nc(N3CC(N(C)C)C3)nc3c(F)c(-c4c(F)ccc5cn[nH]c45)c(Cl)cc23)C[C@H]1C` [Compound 261, 1-((2R,5S)-4-(6-chloro-2-(3-(dimethylamino)azetidin-1-yl)-8-fluoro-7-(6-fluoro-1H-indazol-7-yl)quinazolin-4-yl)-2,5-dimethylpiperazin-1-yl)prop-2-en-1-one], “+++ (+++ indicates binding activity greater than 90%)”.
`C=CC(=O)N1C[C@H](C)N(c2nc(OCCn3ccc4cccnc43)nc3c(F)c(-c4c(O)cccc4F)c(Cl)cc23)C[C@H]1C` [Compound 263, 1-((2R,5S)-4-(2-(2-(1H-pyrrolo[2,3-b]pyridin-1-yl)ethoxy)-6-chloro-8-fluoro-7-(2-fluoro-6-hydroxyphenyl)quinazolin-4-yl)-2,5-dimethylpiperazin-1-yl)prop-2-en-1-one]: the Binding % result is “+ (+ indicates binding activity greater than 0% and up to 50%)”.
For the molecule `C=CC(=O)N1C[C@H](C)N(c2nc(N3CC(N(C)C)C3)nc3c(F)c(-c4c(C)ccc5[nH]ccc45)c(Cl)cc23)C[C@H]1C` [Compound 266, 1-((2R,5S)-4-(6-chloro-2-(3-(dimethylamino)azetidin-1-yl)-8-fluoro-7-(5-methyl-1H-indol-4-yl)quinazolin-4-yl)-2,5-dimethylpiperazin-1-yl)prop-2-en-1-one], the Binding % entry is given as “+++ (+++ indicates binding activity greater than 90%)”.
Then `C=CC(=O)N1C[C@H](C)N(c2nc(N3CC(N(C)C)C3)nc3c(F)c(-c4c(C)ccc5[nH]cnc45)c(Cl)cc23)C[C@H]1C` [Compound 273, 1-((2R,5S)-4-(6-chloro-2-(3-(dimethylamino)azetidin-1-yl)-8-fluoro-7-(5-methyl-1H-benzo[d]imidazol-4-yl)quinazolin-4-yl)-2,5-dimethylpiperazin-1-yl)prop-2-en-1-one], with “+++ (+++ indicates binding activity greater than 90%)”.
For `C=CC(=O)N1C[C@H](C)N(c2nc(OCC(C)(C)N)nc3c(F)c(-c4c(O)cccc4F)c(Cl)cc23)C[C@H]1C` [Compound 274, 1-((2R,5S)-4-(2-(2-amino-2-methylpropoxy)-6-chloro-8-fluoro-7-(2-fluoro-6-hydroxyphenyl)quinazolin-4-yl)-2,5-dimethylpiperazin-1-yl)prop-2-en-1-one], the Binding % entry was “+ (+ indicates binding activity greater than 0% and up to 50%)”.
